Where a name gives a salt, the structure may show the parent alone.
What was measured:
[1] = biological target: T1, human DPP-IV (Homo sapiens, UniProt P27487); assay: DPP-IV activity assay (fluorogenic / colorimetric); format: biochemical; conditions: natural human DPP-IV from plasma pool or recombinant human DPP-IV; 37° C., pH 7.8
T1 construct: made in house; host or cells: Pichia pastoris (secreted, purified from the culture medium)
Protocol: Activity of DPP-IV inhibitors are tested with natural human DPP-IV derived from a human plasma pool or with recombinant human DPP-IV. Human citrate plasma from different donors is pooled, filtered through a 0.2 micron membrane under sterile conditions and aliquots of 1 mL are shock frozen and stored at −120° C. until used. In the colorimetric DPP-IV assay 5 to 10 μL human plasma and in the fluorometric assay 1.0 μL of human plasma in a total assay volume of 100 μL is used as an enzyme source. The cDNA of the human DPP-IV sequence of amino acid 31- to 766, restricted for the N-terminus and the transmembrane domain, is cloned into pichia pastoris. […]
In the calorimetric assay H-Ala-Pro-pNA.HCl (Bachem L-1115) is used as a substrate. […] Fluorescence is detected in a Perkin Elmer Luminescence Spectrometer LS 50B at an excitation wavelength of 400 nm and an emission wavelength of 505 nm continuously every 15 seconds for 10 to 30 minutes. Initial rate constants are calculated by best fit linear regression. The absorption of pNA liberated from the calorimetric substrate is detected in a Packard SpectraCount at […] continuously every 2 minutes for 30 to 120 minutes. Initial rate constants are calculated by best fit linear regression. […]
IC50 determinations of test compounds are calculated by non-linear best fit regression of the DPP-IV inhibition of at least 5 different compound concentrations. […]

[2] = Hygroscopicity observation (water uptake and release of the crystal form); format: physicochemical; conditions: solid crystal form; XRPD and IR vary with humidity of the sample
Description: It has been observed that the polymorph B is hygroscopic and that the X-ray powder diffraction pattern and the IR-spectrum of polymorph B can vary, depending on the humidity of the analyzed sample. Water uptake and release, respectively, result in systematic shifts of some peak positions in the X-ray powder diffraction pattern. The crystal form B is characterized by a set of peaks, as described above, that are not susceptible to peak shifts in a range larger than 0.2 degrees in 2-theta. Samples of polymorph B, which have been dried, e.g. by elevated temperature or in a dry atmosphere, show the same X-ray powder diffraction pattern. In the IR spectrum of polymorph B, variations of humidity of the sample are mainly observed in following regions: 3700-3300, 1250-1150, 1045-1000 970-955, 900-850 cm^−1. However, changes of humidity can also have an influence on the position of the peaks outside these ranges.

T1 sequence (P27487 31-766): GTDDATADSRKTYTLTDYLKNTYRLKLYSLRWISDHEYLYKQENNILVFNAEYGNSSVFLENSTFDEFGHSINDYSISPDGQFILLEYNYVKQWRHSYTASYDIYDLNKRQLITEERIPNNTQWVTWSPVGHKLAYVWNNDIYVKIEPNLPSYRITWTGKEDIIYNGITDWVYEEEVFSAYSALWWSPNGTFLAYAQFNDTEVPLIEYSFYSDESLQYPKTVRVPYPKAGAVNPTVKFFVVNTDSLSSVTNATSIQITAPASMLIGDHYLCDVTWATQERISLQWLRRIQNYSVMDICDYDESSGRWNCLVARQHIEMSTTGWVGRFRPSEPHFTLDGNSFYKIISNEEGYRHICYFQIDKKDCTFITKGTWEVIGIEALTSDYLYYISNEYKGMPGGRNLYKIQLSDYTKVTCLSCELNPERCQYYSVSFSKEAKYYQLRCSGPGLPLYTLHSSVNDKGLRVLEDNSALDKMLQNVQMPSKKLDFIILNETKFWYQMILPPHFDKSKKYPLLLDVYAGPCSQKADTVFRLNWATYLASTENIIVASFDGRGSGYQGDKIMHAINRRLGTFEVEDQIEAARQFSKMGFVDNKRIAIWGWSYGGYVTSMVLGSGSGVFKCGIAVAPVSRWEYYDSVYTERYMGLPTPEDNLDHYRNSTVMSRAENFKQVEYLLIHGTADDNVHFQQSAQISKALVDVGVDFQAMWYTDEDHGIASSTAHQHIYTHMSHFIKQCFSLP

Compound | IC50 [1] [nM] | Ki [1] [nM] | hygroscopicity [2]
Cc1oc(-c2ccccc2)nc1CCNCC(=O)N1CCC[C@H]1C#N [(S)-1-{[2-(5-Methyl-2-phenyl-oxazol-4-yl)-ethylamino]-acetyl}-pyrrolidine-2-carbonitrile mesylate] | 75 | 80 | 
CS(=O)(=O)O.Cc1oc(-c2ccccc2)nc1CCNCC(=O)N1CCC[C@H]1C#N [polymorph B, (S)-1-{[2-(5-Methyl-2-phenyl-oxazol-4-yl)-ethylamino]-acetyl}-pyrrolidine-2-carbonitrile mesylate] |  |  | hygroscopic

Source: US7772264B2, “Salt and polymorphs of a DPPIV inhibitor” (Hoffmann-La Roche Inc., priority 2005, dated 2010)
